Data reported in ChEMBL document CHEMBL4017451, “Discovery of a series of 1,3,4-oxadiazole-2(3H)-thione derivatives containing piperazine skeleton as potential FAK inhibitors” (Bioorg Med Chem, 2017).
pIC50: −log10 of the molar value.

Columns and labels:
SW 1116 = assay: Antiproliferative activity against human SW1116 cells after 48 hrs by MTT assay; settings: SW 1116, 48 h
HepG2 = assay: cells; settings: Homo sapiens, HepG2, 48 h
HeLa = assay: cells; settings: Homo sapiens, 48 h
BGC-823 = assay: cells; settings: Homo sapiens, BGC-823, 48 h
Description: Antiproliferative activity against human BGC823 cells after 48 hrs by MTT assay

| SMILES | pIC50 (SW 1116) | pIC50 (HepG2) | pIC50 (HeLa) | pIC50 (BGC-823) |
| --- | --- | --- | --- | --- |
| S=c1oc(-c2ccc3c(c2)OCCO3)nn1CN1CCN(c2cccc(Cl)c2)CC1 | < 4.30 | < 4.30 | 4.33 | < 4.30 |
| Cc1ccc(N2CCN(Cn3nc(-c4ccc5c(c4)OCCO5)oc3=S)CC2)c(C)c1 | < 4.30 | 4.55 | < 4.30 | 4.55 |
| FC(F)(F)c1cccc(N2CCN(Cn3nc(-c4ccc5c(c4)OCCO5)oc3=S)CC2)c1 | 4.33 | 5.24 | < 4.30 | < 4.30 |
| S=c1oc(-c2ccc3c(c2)OCCO3)nn1CN1CCN(C(c2ccccc2)c2ccccc2)CC1 | 4.66 | 5.04 | < 4.30 | < 4.30 |
| S=c1oc(-c2ccc3c(c2)OCCO3)nn1CN1CCN(c2ccccn2)CC1 | 5.02 | 4.95 | 4.60 | 4.59 |
| S=c1oc(-c2ccc3c(c2)OCCO3)nn1CN1CCN(c2ccc(Cl)cc2)CC1 | < 4.30 | < 4.30 | < 4.30 | < 4.30 |
| COc1cccc(N2CCN(Cn3nc(-c4ccc5c(c4)OCCO5)oc3=S)CC2)c1 | < 4.30 | 4.67 | 4.75 | < 4.30 |
| Fc1ccccc1N1CCN(Cn2nc(-c3ccc4c(c3)OCCO4)oc2=S)CC1 | 4.42 | < 4.30 | 4.43 | < 4.30 |
| S=c1oc(-c2ccc3c(c2)OCCO3)nn1CN1CCN(Cc2ccccc2)CC1 | < 4.30 | 4.75 | 4.57 | 4.54 |
| S=c1oc(-c2ccc3c(c2)OCCO3)nn1CN1CCN(c2ccccc2)CC1 | < 4.30 | < 4.30 | < 4.30 | < 4.30 |
| S=c1oc(-c2ccc3c(c2)OCCO3)nn1CN1CCN(c2cccc(Cl)c2Cl)CC1 | 4.43 | < 4.30 | < 4.30 | 4.65 |
| COc1ccc(N2CCN(Cn3nc(-c4ccc5c(c4)OCCO5)oc3=S)CC2)cc1 | 4.62 | < 4.30 | < 4.30 | 4.72 |
| O=[N+]([O-])c1ccc(N2CCN(Cn3nc(-c4ccc5c(c4)OCCO5)oc3=S)CC2)cc1 | < 4.30 | 4.53 | 4.50 | < 4.30 |
| S=c1oc(-c2ccc3c(c2)OCCO3)nn1CN1CCN(c2ccc(Cl)c(Cl)c2)CC1 | 4.48 | 4.62 | < 4.30 | < 4.30 |
| COc1ccccc1N1CCN(Cn2nc(-c3ccc4c(c3)OCCO4)oc2=S)CC1 | 4.77 | 4.81 | < 4.30 | 4.71 |
| S=c1oc(-c2ccc3c(c2)OCCO3)nn1CN1CCN(c2ccccc2Cl)CC1 | < 4.30 | 4.94 | 4.43 | < 4.30 |
| Fc1ccc(N2CCN(Cn3nc(-c4ccc5c(c4)OCCO5)oc3=S)CC2)cc1 | < 4.30 | < 4.30 | < 4.30 | < 4.30 |
| O=c1[nH]cc(F)c(=O)[nH]1 [FLUOROURACIL] | 4.73 | 4.88 | 5.04 | 4.76 |
